# System: rat primary hippocampal neurons
# Test: Neurite outgrowth assay in primary hippocampal neurons
# Type: cell-based
# Conditions: 48 hours, FIG. 2
# Method: The hippocampi of gestational day 18 rat embryos were dissected out, incubated in trypsin (0.08%, 30 min at 37° C.) and dissociated mechanically (Skaper et al., 19990). Hippocampal cells were resuspended in neurobasal medium supplemented with B27, anti-oxidants, 1 mM glutamine, 25 μM glutamate, 1 mM pyruvate, +/−Compound 1 (10 nM-5 μM) or vehicle (DMSO) control.
# For outgrowth assays, cells were plated at a density of 3000 cells/well into 96 well dishes that had previously been coated with poly-D-lysine followed by 10% FCS. For RNA isolation, cells were plated at 1×10^6 cells/well into a 35 mm tissue culture dish that had previously been coated with poly-D-lysine followed by 10% FCS.
# Compound (I) was solubilised in DMSO and added to culture medium at time of cell plating at a dilution of 1:1000. Vehicle only (1:1000) was added to culture medium of untreated controls. […] Assays were quantified using a KS300 image analysis system (Imaging Associates, UK). For each cell measured, the length from the edge of the cell to the end of the longest neurite was measured for 100 cells/well for each treatment in triplicate. […] Results are expressed as a percentage of the length of neurites of cells treated with vehicle alone.
# # Compound (I) at 0.01 and 0.05 μM has been analysed in one experiment only (n=3)
compound,measurement,setting,value
"CN(CCOc1ccc(CC2SC(=O)NC2=O)cc1)c1ccccn1 (centres unmarked) [Compound (I), 5-(4-[2-(N-methyl-N-(2-pyridyl)amino)ethoxy]benzyl)-2,4-thiazolidinedione]",neurite outgrowth (effect in words),10 nM-5 μM added at time of cell plating,increases neurite outgrowth in rat primary hippocampal neurons in a dose dependant manner
same,increase of neurite outgrowth over untreated controls,"Compound at 100 nM, length of longest neurite relative to cells treated with vehicle (DMSO) alone",approx. 50%

# Source: patent US20070238757A1, “NOVEL TREATMENT” (SmithKline Beecham p.l.c., priority 2000, published 2007)
